Source: patent publication US5650428A, “Arylsulfonamide derivative and pharmaceutical compositions and use thereof” (NKK Corporation, priority 1993, dated 1997)
Where a name gives a salt, the structure may show the parent alone.

What was measured:
rat platelet = experiment: Inhibitory activity of aggregation in rat platelet; type: cell-based; conditions: rat platelet rich plasma, arachidonic acid (final concentration 0.5 mM) as inducer; read-out: C: Inhibitory activity of aggregation in rat platelet (IC50; μM)
Procedure: (3) Inhibitory Activity of Aggregation in Rat Platelet The abdomen of etherized rat was open, and blood was taken from the abdominal arteries, using a sodium citrate solution (final concentration was 0.38%). The blood was centrifuged at 1100 rpm for 10 minutes, and the supernatent was separated as the platelet rich plasma. The plasma was further centrifuged at 2000 rpm for 15 minutes to obtain the supernatent as a platelet poor plasma. The platelet rich plasma (280 μl) was placed in a measuring cuvette and preincubated for 1 minute at 37° C. Then, a sample solution (10 μl) was added. After 2 minutes, an arachidonic acid solution (final concentration=0.5 mM) (10 μl) was added as an inducer. The change in light transmission was recorded for 5 minutes.

[1] = biological target: T1, thromboxane A2 (TxA2) receptor (Cavia porcellus, UniProt A0A286Y4I8); experiment: TxA2 antagonist action by binding assay; conditions: washed guinea pig platelets, 1 nM [3H]-SQ29,548, 45 minutes at 25° C.
T1 construct: to obtain washed platelets; from tissue; host or cells: washed platelets of male Hartley guinea pigs
T1 sequence (A0A286Y4I8 1-347): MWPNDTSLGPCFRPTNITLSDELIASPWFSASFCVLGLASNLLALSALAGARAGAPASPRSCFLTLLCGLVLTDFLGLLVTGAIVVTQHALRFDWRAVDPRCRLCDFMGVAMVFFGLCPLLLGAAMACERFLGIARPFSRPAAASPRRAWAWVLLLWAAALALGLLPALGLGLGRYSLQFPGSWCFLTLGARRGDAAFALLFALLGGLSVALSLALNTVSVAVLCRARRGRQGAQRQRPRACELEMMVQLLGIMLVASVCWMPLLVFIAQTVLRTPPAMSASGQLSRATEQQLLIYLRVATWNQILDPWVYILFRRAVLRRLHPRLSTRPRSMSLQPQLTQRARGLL
Procedure: (1) TxA2 antagonist action by binding assay Guinea pigs (Hartley; male; body weight=approximately 500 g) were anesthetized with ether, and the blood was collected into sodium citrate (final concentration=0.38%). The preparation of platelets was carried out at room temperature. The platelet rich plasma was obtained by centrifugation at 980 rpm for 10 minutes. One tenth (1/10) amount of 77 mM-EDTA-Na (pH 7.4) was added to the platelet rich plasma, and the mixture was centrifuged for 10 minutes at 3000 rpm. The suspension was again centrifuged at 3000 rpm for 10 minutes. The precipitate was further resuspended in a suspension buffer (2) shown in Table 2 to obtain washed platelets. The number of platelets was counted by an automatic blood cell counter (Sysmex Microcellcounter F-800) and the sample was diluted with the suspension buffer to 4×10^8 cells/ml. The platelets, sample solution and labeled compounds were placed into plastic tubes in amounts (volumes) shown in the following Table 3, incubated for 45 minutes at 25° C., and then the mixture was filtered using a cell harvester (Brandel cell harvester M-24R) by a glass fiber filter (Whatman GF/B). After the filter was sufficiently dried, the scintillation was counted by a scintillation counter (Beckman LS5000TD). IC50 was calculated from (binding)/(control binding) ratio in the presence of an antagonist. [table 3: the next 10 blocks are its lines as printed, fixed-width]

Compound	IC50 (rat platelet) [µM]	IC50 [1] [µM]
O=C(O)Cc1ccc(NC(=O)C(COc2cccnc2)NS(=O)(=O)c2ccc(Cl)cc2)cc1 (racemic) [Example 116, (RS)-N-(4-(carboxymethyl)phenyl)-2-(4-chlorobenzenesulfonylamino)-3-(pyridin-3-yloxy)propanamide hydrochloride]	0.95	0.5
O=C(O)Cc1ccc(NC(=O)C(COc2ccc(Cl)cc2)NS(=O)(=O)c2ccc(I)cc2)cc1 (racemic) [Example 150, (RS)-N-(4-(carboxymethyl)phenyl)-3-(4-chlorophenoxy)-2-(4-iodobenzenesulfonylamino)propanamide]	5.4	0.019
O=C(O)Cc1ccc(NC(=O)C(CC2CCCCC2)NS(=O)(=O)c2ccc(Cl)cc2)cc1 (racemic) [Example 260, (RS)-N-(4-(carboxymethyl)phenyl)-2-(4-chlorobenzenesulfonylamino)-3-cyclohexylpropanamide]	0.89	0.06
O=C(O)CCc1ccc(NC(=O)C(CCc2ccccc2)NS(=O)(=O)c2ccc(Cl)cc2)cc1 (racemic) [Example 174, (RS)-N-(4-(2-carboxyethyl)phenyl)-2-(4-chlorobenzenesulfonylamino)-4-phenylbutanamide]	5.3	0.17
CCSCCC(NS(=O)(=O)c1ccc(Cl)cc1)C(=O)Nc1ccc(CCC(=O)O)cc1 (racemic) [Example 244, (RS)-N-(4-(2-carboxyethyl)phenyl)-2-(4-chlorobenzenesulfonylamino)-4-ethylthiobutanamide]	1.6	0.29
O=C(O)Cc1ccc(NC(=O)C(COc2ccc(Cl)cc2)NS(=O)(=O)c2ccc(F)cc2)cc1 (racemic) [Example 137, (RS)-N-(4-(carboxymethyl)phenyl)-3-(4-chlorophenoxy)-2-(4-fluorobenzenesulfonylamino)propanamide]	1.7	0.1
O=C(O)Cc1ccc(NC(=O)C(COc2cccc(Cl)c2)NS(=O)(=O)c2ccc(F)cc2)cc1 (racemic) [Example 138, (RS)-N-(4-(carboxymethyl)phenyl)-3-(3-chlorophenoxy)-2-(4-fluorobenzenesulfonylamino)propanamide]	0.53	0.1
O=C(O)Cc1ccc(NC(=O)C(COc2cccc(Cl)c2)NS(=O)(=O)c2ccc(Br)cc2)cc1 (racemic) [Example 144, (RS)-2-(4-bromobenzenesulfonylamino)-N-(4-(carboxymethyl)phenyl)-3-(3-chlorophenoxy) propanamide]	0.53	0.051
O=C(O)Cc1ccc(NC(=O)C(COc2ccccc2Cl)NS(=O)(=O)c2ccc(I)cc2)cc1 (racemic) [Example 152, (RS)-N-(4-(carboxymethyl)phenyl)-3-(2-chlorophenoxy)-2-(4-iodobenzenesulfonylamino)propanamide]	1.7	0.074
O=C(O)Cc1ccc(NC(=O)C(COC2CCCCO2)NS(=O)(=O)c2ccc(Cl)c([N+](=O)[O-])c2)cc1 (racemic) [Example 58, (RS)-N-(4-(carboxymethyl)phenyl)-2-(4-chloro-3-nitrobenzenesulfonylamino)-3-(tetrahydropyran-2-yloxy)propanamide]	5.3	1.4
Cc1ccc(S(=O)(=O)NC(COC2CCCCO2)C(=O)Nc2ccc(CC(=O)O)cc2)cc1 (racemic) [Example 56, (RS)-N-(4-(carboxymethyl)phenyl)-2-(4-methylbenzenesulfonylamino)-3-(tetrahydropyran-2-yloxy)propanamide]	1.7	0.3
O=C(O)Cc1ccc(NC(=O)C(CCc2ccccc2)NS(=O)(=O)c2ccc(Cl)cc2)cc1 (racemic) [Example 172, (RS)-N-(4-(carboxymethyl)phenyl)-2-(4-chlorobenzenesulfonylamino)-4-phenylbutanamide]	1.7	0.072
O=C(O)CCc1cccc(NC(=O)C(COC2CCCCO2)NS(=O)(=O)c2ccc(Cl)cc2)c1 (racemic) [Example 46, (RS)-N-(3-(carboxyethyl)phenyl)-2-(4-chlorobenzenesulfonylamino)-3-(tetrahydropyran-2-yloxy)propanamide]	1.7	0.11
COc1ccc(S(=O)(=O)NC(COC2CCCCO2)C(=O)Nc2ccc(CC(=O)O)cc2)cc1 (racemic) [Example 57, (RS)-N-(4-(carboxymethyl)phenyl)-2-(4-methoxybenzenesulfonylamino)-3-(tetrahydropyran-2-yloxy)propanamide]	0.53	0.15
CCCC[C@@H](NS(=O)(=O)c1ccc(Cl)cc1)C(=O)Nc1ccc(CC(=O)O)cc1 [Example 224, (R)-N-(4-(carboxymethyl)phenyl)-2-(4-chlorobenzenesulfonylamino)hexanamide]	3.4	48.2
O=C(O)Cc1ccc(NC(=O)C(CCOC2CCCCO2)NS(=O)(=O)c2ccc(Cl)cc2)cc1 (racemic) [Example 169, (RS)-N-(4-(carboxymethyl)phenyl)-2-(4-chlorobenzenesulfonylamino)-4-(tetrahydropyran-2-yloxy)butanamide]	1.7	0.69
O=C(O)Cc1cccc(NC(=O)C(COC2CCCCO2)NS(=O)(=O)c2ccc(Cl)cc2)c1 (racemic) [Example 45, (RS)-N-(3-(carboxymethyl)phenyl)-2-(4-chlorobenzenesulfonylamino)-3-(tetrahydropyran-2-yloxy)propanamide]	3.6	0.42
O=C(O)CCCCCCNC(=O)C(COC1CCCCO1)NS(=O)(=O)c1ccc(Cl)cc1 (racemic) [Example 50, (RS)-N-(6-carboxyhexyl)-2-(4-chlorobenzenesulfonylamino)-3-(tetrahydropyran-2-yloxy)propanamide]	1.75	1

Further lines, results first:

IC50 (rat platelet) [µM]	IC50 [1] [µM]	Compound
0.4	1.7	O=C(O)CCCCCNC(=O)C(COC1CCCCO1)NS(=O)(=O)c1ccc(Cl)cc1 (racemic) [Example 49, (RS)-N-(5-carboxypentyl)-2-(4-chlorobenzenesulfonylamino)-3-(tetrahydropyran-2-yloxy)propanamide]
0.3	0.15	CSCC[C@H](NS(=O)(=O)c1ccc(Cl)cc1)C(=O)Nc1ccc(CCC(=O)O)cc1 [Example 237, (S)-N-(4-(2-carboxyethyl)phenyl)-2-(4-chlorobenzenesulfonylamino)-4-methylthiobutanamide]
0.53	0.072	CCCCC(NS(=O)(=O)c1ccc(Br)cc1)C(=O)Nc1ccc(CC(=O)O)cc1 (racemic) [Example 226, (RS)-2-(4-bromobenzenesulfonylamino)-N-(4-(carboxymethyl)phenyl)hexanamide]
0.17	0.012	O=C(O)Cc1ccc(NC(=O)C(Cc2ccccc2)NS(=O)(=O)c2ccc(Br)cc2)cc1 (racemic) [Example 251, (RS)-2-(4-bromobenzenesulfonylamino)-N-(4-(carboxymethyl)phenyl)-3-phenylpropanamide]
0.17	0.13	CCCC[C@H](NS(=O)(=O)c1ccc(Cl)cc1)C(=O)Nc1ccc(CC(=O)O)cc1 [Example 223, (S)-N-(4-(carboxymethyl)phenyl)-2-(4-chlorobenzenesulfonylamino)hexanamide]
0.17	0.052	CSCC[C@H](NS(=O)(=O)c1ccc(Cl)cc1)C(=O)Nc1ccc(CC(=O)O)cc1 [Example 234, (S)-N-(4-(carboxymethyl)phenyl)-2-(4-chlorobenzenesulfonylamino)-4-methylthiobutanamide]
0.055	0.026	CSCC[C@H](NS(=O)(=O)c1ccc(Br)cc1)C(=O)Nc1ccc(CC(=O)O)cc1 [Example 239, (S)-2-(4-bromobenzenesulfonylamino)-N-(4-(carboxymethyl)phenyl)-4-methylthiobutanamide]
0.17	0.017	O=C(O)Cc1ccc(NC(=O)C(COc2ccccc2)NS(=O)(=O)c2ccc(I)cc2)cc1 (racemic) [Example 149, (RS)-N-(4-(carboxymethyl)phenyl)-2-(4-iodobenzenesulfonylamino)-3-phenoxypropanamide]
